Results published in patent US6077872A (priority 1998, dated 2000).

Test system: rickets-mice
Assay: Preventing rickets in younger mice: serum Ca, AKP, P
Type: in vivo, mice of Kunming species
Conditions: for serum Ca / serum P / serum AKP (in Bessey-Loury unit): 60 days; for serum Ca: model 1.55 ± 0.42; for serum P: model 2.23 ± 0.52; for serum AKP (in Bessey-Loury unit): model 101 ± 34
Procedure: The mice were bred for 60 days under conditions of avoiding light around-the-clock, at a temperature of 20-25° C. and a relative humility of 40-60% while the normal-control group mice were fed ordinary diet and water and were placed in non-dark room.
The low-calcium diet used in this test was the same as that in Test II but VD in the vitamin mixture was replaced by glucose.
Some weanling mice were placed in dark room and fed VD -deficient low-calcium diet and drunk de-ionized water for 60 days, thus a ricket model of baby mice was prepared. While other weanling mice were placed in non-dark room and fed ordinary diet and drunk tap water for 60 days, these mice were established as normal-control group.

O=C(O)[C@H](O)[C@@H](O)CO [calcium L-threonate] was tested, and the “serum Ca” value (200 mg calcium element) was 2.33 ± 0.82 mmol/L, the “serum P” value (200 mg calcium element) was 1.52 ± 0.45 mmol/L and the “serum AKP (in Bessey-Loury unit)” value (200 mg calcium element) was 59.3 ± 14 U/L. The “serum Ca” value (300 mg calcium element) was 2.17 ± 0.82 mmol/L, the “serum P” value (300 mg calcium element) was 1.35 ± 0.34 mmol/L and the “serum AKP (in Bessey-Loury unit)” value (300 mg calcium element) was 43.1 ± 14 U/L. The “serum Ca effect (in words)” value (high and low dosage) was “approximate to that of the normal-control group but were much higher than those of the model group” and the “serum AKP effect (in words)” value (mouse, in vivo) was “much lower than those of the model group”.
